Results as given in patent EP0910563B1, “INTEGRIN RECEPTOR ANTAGONISTS” (SMITHKLINE BEECHAM CORPORATION, priority 1995, dated 1997).
pKi: −log10 of the molar value.

Experiments:
[1] = biological target: T1, fibrinogen receptor (αIIbβ3) (Homo sapiens, UniProt P05106+P08514); assay: Competitive binding of [3H]-SK&F-107260 to αIIbβ3 in liposomes; conditions: purified platelet αIIbβ3-containing liposomes, 4.5 nM [3H]-SK&F-107260
T1 construct: followed by the addition of 1 µg of the purified platelet αIIbβ3-containing liposomes; tissue Red Cross (platelets); host or cells: outdated, washed human platelets; lentil lectin sepharose purification
T1 sequence (P08514 32-887 limits assumed): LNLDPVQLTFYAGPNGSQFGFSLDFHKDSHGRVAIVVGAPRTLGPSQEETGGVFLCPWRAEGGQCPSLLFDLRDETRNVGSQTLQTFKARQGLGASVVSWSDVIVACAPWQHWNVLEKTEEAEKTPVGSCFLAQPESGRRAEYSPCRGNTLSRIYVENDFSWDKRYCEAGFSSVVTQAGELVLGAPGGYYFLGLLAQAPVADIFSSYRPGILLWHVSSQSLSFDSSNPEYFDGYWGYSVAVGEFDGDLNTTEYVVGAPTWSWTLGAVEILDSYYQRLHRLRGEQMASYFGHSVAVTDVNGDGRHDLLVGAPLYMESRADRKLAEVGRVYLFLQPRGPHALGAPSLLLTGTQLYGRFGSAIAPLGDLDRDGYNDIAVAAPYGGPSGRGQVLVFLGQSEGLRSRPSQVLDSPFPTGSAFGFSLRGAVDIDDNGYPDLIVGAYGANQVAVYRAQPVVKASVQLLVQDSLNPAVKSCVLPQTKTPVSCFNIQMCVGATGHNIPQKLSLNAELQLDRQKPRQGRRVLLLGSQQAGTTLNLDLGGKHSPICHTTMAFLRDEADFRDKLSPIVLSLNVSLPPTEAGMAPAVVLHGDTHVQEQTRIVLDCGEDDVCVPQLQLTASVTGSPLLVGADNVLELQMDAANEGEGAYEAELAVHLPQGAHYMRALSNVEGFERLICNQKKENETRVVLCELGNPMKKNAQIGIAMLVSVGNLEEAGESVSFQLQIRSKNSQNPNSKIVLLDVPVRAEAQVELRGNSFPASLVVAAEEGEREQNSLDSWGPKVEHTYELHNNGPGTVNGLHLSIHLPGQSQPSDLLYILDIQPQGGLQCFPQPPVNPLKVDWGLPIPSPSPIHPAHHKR
T1 sequence (P08514 891-1039 partner limits assumed): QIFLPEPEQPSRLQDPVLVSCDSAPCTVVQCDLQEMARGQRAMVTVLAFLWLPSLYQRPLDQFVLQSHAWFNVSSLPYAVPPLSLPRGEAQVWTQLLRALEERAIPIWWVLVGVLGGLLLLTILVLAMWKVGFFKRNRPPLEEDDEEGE
T1 sequence (P05106 27-788): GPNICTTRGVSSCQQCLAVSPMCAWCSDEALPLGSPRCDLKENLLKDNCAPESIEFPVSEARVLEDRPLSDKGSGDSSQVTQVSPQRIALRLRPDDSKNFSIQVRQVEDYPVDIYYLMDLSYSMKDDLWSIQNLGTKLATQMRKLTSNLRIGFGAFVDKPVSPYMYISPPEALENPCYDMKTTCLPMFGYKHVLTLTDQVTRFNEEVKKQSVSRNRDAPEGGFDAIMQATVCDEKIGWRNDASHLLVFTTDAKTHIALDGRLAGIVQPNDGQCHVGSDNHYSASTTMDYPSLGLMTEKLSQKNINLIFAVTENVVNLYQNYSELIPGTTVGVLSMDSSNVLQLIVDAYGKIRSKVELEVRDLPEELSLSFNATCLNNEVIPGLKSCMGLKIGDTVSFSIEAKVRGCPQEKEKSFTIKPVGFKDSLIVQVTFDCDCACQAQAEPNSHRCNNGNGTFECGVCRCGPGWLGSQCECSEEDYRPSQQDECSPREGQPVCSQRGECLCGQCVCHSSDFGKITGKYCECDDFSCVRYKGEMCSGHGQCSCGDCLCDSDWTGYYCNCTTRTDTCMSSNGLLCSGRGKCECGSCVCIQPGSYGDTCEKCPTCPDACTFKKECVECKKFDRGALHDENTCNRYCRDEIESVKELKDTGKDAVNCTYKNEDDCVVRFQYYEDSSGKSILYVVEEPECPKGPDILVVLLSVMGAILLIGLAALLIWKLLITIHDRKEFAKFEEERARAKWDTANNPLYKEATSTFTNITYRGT
Experimental: Ten units of outdated, washed human platelets (obtained from Red Cross) were lyzed by gentle stirring in 3% octylglucoside, 20 mM Tris-HCl, pH 7.4, 140 mM NaCl, 2 mM CaCl2 at 4°C for 2 h. The lysate was centrifuged at 100,000g for 1 h. The supernatant obtained was applied to a 5 mL lentil lectin sepharose 4B column (E.Y. Labs) preequilibrated with 20 mM Tris-HCl, pH 7.4, 100 mM NaCI, 2 mM CaCl2, 1% octylglucoside (buffer A). After 2 h incubation, the column was washed with 50 mL cold buffer A. The lectin-retained αIIbβ3 was eluted with buffer A containing 10% dextrose. All procedures were performed at 4°C. The αIIbβ3 obtained was >95% pure as shown by SDS polyacrylamide gel electrophoresis. […]
The binding to the fibrinogen receptor (αIIbβ3) was assayed by an indirect competitive binding method using [^3H]-SK&F-107260 as an RGD-type ligand. […] Bound radioactivity remaining on the filters was counted in 1.5 mL Ready Solve (Beckman Instruments, Fullerton, CA) in a Beckman Liquid Scintillation Counter (Model LS6800), with 40% efficiency. Nonspecific binding was determined in the presence of 2 µM unlabeled SK&F-107260 and was consistently less than 0.14% of the total radioactivity added to the samples. […]
Competition binding data were analyzed by a nonlinear least-squares curve fitting procedure. […]

[2] = biological target: T2, αvβ3 (Homo sapiens, UniProt P05106+P06756); assay: Solid-phase [3H]-SK&F-107260 binding to αvβ3 (inhibition of vitronectin binding); conditions: human placenta or platelet αvβ3 on ELISA plates, 5.0 nM [3H]-SK&F-107260
T2 construct: Human placenta or human platelet αvβ3 (0.1-0.3 mg/mL) in buffer T; from tissue; host or cells: human placenta or human platelets
T2 sequence (P06756 31-889 limits assumed): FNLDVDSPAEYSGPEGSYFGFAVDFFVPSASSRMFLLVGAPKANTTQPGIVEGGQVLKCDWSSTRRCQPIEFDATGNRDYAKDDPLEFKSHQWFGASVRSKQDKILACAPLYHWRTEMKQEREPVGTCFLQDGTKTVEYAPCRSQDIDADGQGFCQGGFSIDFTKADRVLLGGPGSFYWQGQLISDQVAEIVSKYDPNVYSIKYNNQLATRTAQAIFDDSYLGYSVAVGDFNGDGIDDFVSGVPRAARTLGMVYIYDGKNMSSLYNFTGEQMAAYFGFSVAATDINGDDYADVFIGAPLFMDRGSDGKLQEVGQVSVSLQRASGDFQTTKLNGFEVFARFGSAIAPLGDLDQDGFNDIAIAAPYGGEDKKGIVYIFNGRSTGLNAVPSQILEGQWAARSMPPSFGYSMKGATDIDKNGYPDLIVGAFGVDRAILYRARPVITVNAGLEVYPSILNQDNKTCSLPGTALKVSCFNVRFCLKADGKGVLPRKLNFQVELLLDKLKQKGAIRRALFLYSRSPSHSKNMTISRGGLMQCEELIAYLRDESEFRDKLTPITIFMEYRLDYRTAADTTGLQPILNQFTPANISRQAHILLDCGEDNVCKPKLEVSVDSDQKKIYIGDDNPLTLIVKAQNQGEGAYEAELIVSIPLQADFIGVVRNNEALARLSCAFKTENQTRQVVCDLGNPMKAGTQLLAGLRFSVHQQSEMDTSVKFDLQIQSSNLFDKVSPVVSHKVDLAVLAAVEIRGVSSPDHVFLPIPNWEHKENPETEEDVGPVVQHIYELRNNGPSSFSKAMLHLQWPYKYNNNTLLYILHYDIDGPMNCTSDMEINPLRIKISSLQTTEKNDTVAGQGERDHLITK
T2 sequence (P06756 891-1048 partner limits assumed): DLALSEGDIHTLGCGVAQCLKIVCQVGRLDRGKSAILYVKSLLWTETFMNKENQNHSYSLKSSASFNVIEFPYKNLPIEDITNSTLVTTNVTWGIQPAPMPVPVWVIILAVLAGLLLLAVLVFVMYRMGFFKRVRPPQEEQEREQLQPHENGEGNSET
T2 sequence (P05106 27-788): as the sequence (P05106 27-788) above
Experimental: Solid-Phase [^3H]-SK&F-107260 Binding to αvβ3: Human placenta or human platelet αvβ3 (0.1-0.3 mg/mL) in buffer T (containing 2 mM CaCl2 and 1% octylglucoside) was diluted with buffer T containing 1 mM CaCl2, 1 mM MnCl2, 1 mM MgCl2 (buffer A) and 0.05% NaN3, and then immediately added to 96-well ELISA plates (Corning, New York, NY) at 0.1 mL per well. 0.1 - 0.2 µg of αvβ3 was added per well. The plates were incubated overnight at 4°C. At the time of the experiment, the wells were washed once with buffer A and were incubated with 0.1 mL of 3.5% bovine serum albumin in the same buffer for 1 hr at room temperature. Following incubation the wells were aspirated completely and washed twice with 0.2 mL buffer A. […]
The plates were incubated for 1 hr at room temperature. […] The receptors were solubilized with 0.1 mL of 1% SDS and the bound [^3H]-SK&F-107260 was determined by liquid scintillation counting with the addition of 3 mL Ready Safe in a Beckman LS Liquid Scintillation Counter, with 40% efficiency. Nonspecific binding of [^3H]-SK&F-107260 was determined in the presence of 2 µM SK&F-107260 and was consistently less than 1% of total radioligand input. […] The Ki (dissociation constant of the antagonist) was calculated according to the equation: Ki = IC50/(1 + L/Kd), where L and Kd were the concentration and the dissociation constant of [^3H]-SK&F-107260, respectively.

Row | SMILES | pKi [1] | pKi [2]
1 | CN(Cc1nc2ccccc2[nH]1)C(=O)c1ccc2c(c1)Cc1ccccc1C(CC(=O)O)C2 (racemic) [Example 1, (±)-10,11-dihydro-3-[[[(1H-benzimidazol-2-yl)methyl]methylamino]carbonyl]-5H-dibenzo[a,d]cycloheptene-10-acetic acid] | < 4.30 | 7.64
2 | O=C(O)CC1Cc2ccc(C(=O)N3CCC(C4CCNCC4)CC3)cc2Cc2ccccc21 (racemic) [Example 2, (±)-10,11-dihydro-3-[1-(4,4'-bipiperidinyl)carbonyl]-5H-dibenzo[a,d]cycloheptene-10-acetic acid] | 8.05 | 4.82
